According to US20240058464A1 (Fortis Therapeutics, Inc., priority 2021, published 2024):

Assays:
CD46 expression [1] = assay: CD46 expression by RNA-sequencing in unpaired pre-treatment and post-treatment tumor biopsies; type: in vivo, human; conditions: for CD46 expression Post: post-treatment biopsies
CD46 expression [2] = assay: CD46 expression by RNA-sequencing in paired tumor biopsies before and after therapy; conditions: paired biopsies;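 note: FFPE human tumor biopsies, exome-capture RNA-seq, reads aligned to GRCh37, counts normalized for GC content, length and depth, summed per gene, log2-transformed, samples paired before versus after therapy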
[3] = Breast Cancer, Post minus Pre, unpaired biopsies, log2-transformed counts
[4] = Breast Cancer, post- vs pre-treatment unpaired biopsies
[5] = Sarcoma, Post minus Pre, unpaired biopsies, log2-transformed counts
[6] = Sarcoma, post- vs pre-treatment unpaired biopsies
[7] = Sarcoma, unpaired, RNA-seq log2-transformed normalized counts
[8] = Breast Cancer, RNA-seq log2-transformed counts
[9] = Breast Cancer, unpaired, RNA-seq log2-transformed normalized counts
[10] = Non-Small Cell Lung Cancer, Post minus Pre, unpaired biopsies, log2-transformed counts
[11] = Non-Small Cell Lung Cancer, post- vs pre-treatment unpaired biopsies
[12] = Prostate Cancer, Post minus Pre, unpaired biopsies, log2-transformed counts
[13] = Prostate Cancer, post- vs pre-treatment unpaired biopsies
[14] = Prostate Cancer, unpaired, RNA-seq log2-transformed normalized counts
[15] = Prostate Cancer, RNA-seq log2-transformed counts

## COc1cccc2c1C(=O)c1c(O)c3c(c(O)c1C2=O)C[C@@](O)(C(=O)CO)C[C@@H]3O[C@H]1C[C@H](N)[C@H](O)[C@H](C)O1 [doxorubicin]
CD46 expression [1]; Bladder Cancer, post minus pre, unpaired biopsies
  CD46 expression diff: −0.27
CD46 expression [1]; Bladder Cancer, post vs pre, unpaired biopsies
  CD46 expression Percentage change: −4.3%
CD46 expression [1]; Bladder Cancer, log2-transformed RNA-seq counts
  CD46 expression Post: 5.88
CD46 expression [1]; [3]
  CD46 expression diff: −0.02
CD46 expression [1]; [4]
  CD46 expression Percentage change: −0.3%
CD46 expression [1]; [5]
  CD46 expression diff: 0.07
CD46 expression [1]; [6]
  CD46 expression Percentage change: 1.3%
CD46 expression [1]; [7]
  CD46 expression Post: 5.06
CD46 expression [2]; Breast Cancer
  CD46 expression diff (post minus pre): 0.12
  Percent Change in CD46 expression: 1.9%
CD46 expression [2]; [8]
  CD46 expression, Post-Treatment Biopsy: 6.27
CD46 expression [2]; Sarcoma
  CD46 expression diff (post minus pre): 0.20
  Percent Change in CD46 expression: 4.1%
CD46 expression [2]; Sarcoma, RNA-seq log2-transformed counts
  CD46 expression, Post-Treatment Biopsy: 5.19

## CNC(=O)c1cc(Oc2ccc(NC(=O)Nc3ccc(Cl)c(C(F)(F)F)c3)c(F)c2)ccn1 [regorafenib]
CD46 expression [1]; Colorectal Cancer, Post minus Pre, unpaired biopsies, log2-transformed counts
  CD46 expression diff: 0.19
CD46 expression [1]; Colorectal Cancer, post- vs pre-treatment unpaired biopsies
  CD46 expression Percentage change: 2.9%
CD46 expression [1]; Colorectal Cancer, unpaired, RNA-seq log2-transformed normalized counts
  CD46 expression Post: 6.63
CD46 expression [2]; Colorectal Cancer
  CD46 expression diff (post minus pre): 0.25
  Percent Change in CD46 expression: 4.0%
CD46 expression [2]; Colorectal Cancer, RNA-seq log2-transformed counts
  CD46 expression, Post-Treatment Biopsy: 6.49

## atezolizumab
CD46 expression [1]; [3]
  CD46 expression diff: 0.07
CD46 expression [1]; [4]
  CD46 expression Percentage change: 1.3%
CD46 expression [1]; [9]
  CD46 expression Post: 6.00
CD46 expression [1]; [10]
  CD46 expression diff: 0.00
CD46 expression [1]; [11]
  CD46 expression Percentage change: −0.1%
CD46 expression [1]; Non-Small Cell Lung Cancer, unpaired, RNA-seq log2-transformed normalized counts
  CD46 expression Post: 6.04
CD46 expression [2]; Breast Cancer
  CD46 expression diff (post minus pre): −0.14
  Percent Change in CD46 expression: −2.4%
CD46 expression [2]; [8]
  CD46 expression, Post-Treatment Biopsy: 5.99
  CD46 expression, Pre-Treatment Biopsy: 6.14

## Cn1nnc2c(C(N)=O)ncn2c1=O [temozolomide]
CD46 expression [1]; Endocrine Tumor, Post minus Pre, unpaired biopsies, log2-transformed counts
  CD46 expression diff: −0.04
CD46 expression [1]; Endocrine Tumor, post- vs pre-treatment unpaired biopsies
  CD46 expression Percentage change: −0.8%
CD46 expression [1]; Endocrine Tumor, unpaired, RNA-seq log2-transformed normalized counts
  CD46 expression Post: 5.52
CD46 expression [1]; Glioblastoma, Post minus Pre, unpaired biopsies, log2-transformed counts
  CD46 expression diff: 0.08
CD46 expression [1]; Glioblastoma, post- vs pre-treatment unpaired biopsies
  CD46 expression Percentage change: 1.6%
CD46 expression [1]; Glioblastoma, unpaired, RNA-seq log2-transformed normalized counts
  CD46 expression Post: 4.85
CD46 expression [2]; Glioblastoma
  CD46 expression diff (post minus pre): 0.04
  Percent Change in CD46 expression: 0.8%
CD46 expression [2]; Glioblastoma, RNA-seq log2-transformed counts
  CD46 expression, Post-Treatment Biopsy: 4.80

## CNC(=O)c1ccc(N2C(=S)N(c3ccc(C#N)c(C(F)(F)F)c3)C(=O)C2(C)C)cc1F [enzalutamide]
CD46 expression [1]; [12]
  CD46 expression diff: 0.03
CD46 expression [1]; [13]
  CD46 expression Percentage change: 0.4%
CD46 expression [1]; [14]
  CD46 expression Post: 6.14
CD46 expression [2]; Prostate Cancer
  CD46 expression diff (post minus pre): 0.06
  Percent Change in CD46 expression: 1.1%
CD46 expression [2]; [15]
  CD46 expression, Post-Treatment Biopsy: 6.01

## O=P1(N(CCCl)CCCl)NCCCO1 (centres unmarked) [cyclophosphamide]
CD46 expression [1]; [3]
  CD46 expression diff: −0.03
CD46 expression [1]; [4]
  CD46 expression Percentage change: −0.4%
CD46 expression [1]; [9]
  CD46 expression Post: 6.08
CD46 expression [1]; Ovarian Cancer, Post minus Pre, unpaired biopsies, log2-transformed counts
  CD46 expression diff: 0.11
CD46 expression [1]; Ovarian Cancer, post- vs pre-treatment unpaired biopsies
  CD46 expression Percentage change: 1.9%
CD46 expression [1]; Ovarian Cancer, unpaired, RNA-seq log2-transformed normalized counts
  CD46 expression Post: 5.76
CD46 expression [1]; [5]
  CD46 expression diff: 0.06
CD46 expression [1]; [6]
  CD46 expression Percentage change: 1.2%
CD46 expression [1]; [7]
  CD46 expression Post: 5.12
CD46 expression [2]; Breast Cancer
  CD46 expression diff (post minus pre): 0.01
  Percent Change in CD46 expression: 0.2%
CD46 expression [2]; [8]
  CD46 expression, Post-Treatment Biopsy: 6.22

## C[C@]12C=CC(=O)C=C1CC[C@@H]1[C@@H]2C(=O)C[C@@]2(C)[C@H]1CC[C@]2(O)C(=O)CO [prednisone]
CD46 expression [1]; [10]
  CD46 expression diff: 0.02
CD46 expression [1]; [11]
  CD46 expression Percentage change: 0.3%
CD46 expression [1]; [12]
  CD46 expression diff: −0.10
CD46 expression [1]; [13]
  CD46 expression Percentage change: −1.7%
CD46 expression [1]; [14]
  CD46 expression Post: 6.08
CD46 expression [2]; Prostate Cancer
  CD46 expression diff (post minus pre): 0.13
  Percent Change in CD46 expression: 2.3%
CD46 expression [2]; [15]
  CD46 expression, Post-Treatment Biopsy: 5.85

## Cc1nc(NC(=O)N2CCC[C@H]2C(N)=O)sc1-c1ccnc(C(C)(C)C(F)(F)F)c1 [alpelisib]
CD46 expression [1]; [3]
  CD46 expression diff: 0.13
CD46 expression [1]; [4]
  CD46 expression Percentage change: 2.0%
CD46 expression [1]; [9]
  CD46 expression Post: 6.67
CD46 expression [2]; Breast Cancer
  CD46 expression diff (post minus pre): −0.01
  Percent Change in CD46 expression: −0.1%
CD46 expression [2]; [8]
  CD46 expression, Post-Treatment Biopsy: 6.57
